Test results published in patent publication US7910548B2, “Methods for treating obesity” (Amylin Pharmaceuticals, Inc., priority 1997, dated 2011).
One block for each molecule: values may come before it. Bridges are numbered along the chain shown (N, C = ends). Where no end group is shown, it is not given here.

How the values were obtained:
[1] = Tritiated glucose gastric emptying assay; type: in vivo, rat
Text: In a phenol red method, which is described in Example 7 below, conscious rats receive by gavage an acoloric gel containing methyl cellulose and a phenol red indicator. Twenty minutes after gavage, animals are anesthetized using halothane, the stomach exposed and clamped at the pyloric and lower esophageal sphincters, removed and opened into an alkaline solution. Stomach content may be derived from the intensity of the phenol red in the alkaline solution, measured by absorbance at a wavelength of 560 nm. In a tritiated glucose method, which is described in Example 8 below, conscious rats are gavaged with tritiated glucose in water. The rats are gently restrained by the tail, the tip of which is anesthetized using lidocaine. Tritium in the plasma separated from tail blood is collected at various timepoints and detected in a beta counter. Test compounds are normally administered about one minute before gavage.
Conscious, non-fasted, Harlan Sprague Dawley rats were restrained by the tail, the tip of which was anesthetized using 2% lidocaine. Tritium in plasma separated from tail blood collected 0, 15, 30, 60, 90 and 120 minutes after gavage was detected in a beta counter.

[2] = Measurement of body weight in insulin-using Type II diabetes patients, 4-week study; type: in vivo, human; details: 4 weeks, change from baseline
Description: Study participants were males and females 25 to 78 years of age with a history of Type II diabetes mellitus requiring treatment with insulin for at least 6 months prior to the pre-screening visit. […] The study employed methods described in Thompson et al., Diabetes 46:632-636 (1997). Following a placebo lead-in period, patients were randomized to receive placebo or one of three dose regimens of ^25,28,29Pro-h-amylin (pramlintide) for 4 weeks: 30 μg QID (before breakfast, lunch, dinner and evening snack), 60 μg TID (before breakfast, lunch and dinner) or 60 μg QID (before breakfast, lunch, dinner and evening snack). Throughout the study drug period, patients self-administered four injections of study drug daily, within 15 minutes of each meal and the evening snack. During the double-blind period, patients randomized to pramlintide 60 μg TID administered placebo before the evening snack. Both pramlintide and placebo were administered as separate injections into the subcutaneous tissue of the anterior abdominal wall; the specific site was alternated after each injection. Patients were instructed to remain on their usual diet, insulin and exercise regimens throughout the study, unless otherwise instructed by the investigator, and to abstain from alcoholic beverages prior to all clinic visits.

[3] = target: amylin receptors in membranes of rat basal forebrain (nucleus accumbens and surrounding regions) (rat); test: competition with 125I-rat amylin on rat basal forebrain membranes

Molecule: rat amylin
- ED50 derived from the logistic fit (plasma tritium AUC over 30 minutes) ([1]; non-fasted Harlan Sprague Dawley rats, subcutaneous 1 minute before gavage): 0.35 μg
- Absorption of the label (plasma tritium) ([1]; subcutaneous injection, 0.1-100 μg): dose-dependently slowed and/or delayed the absorption of the label

Molecule: CC[C@H](C)[C@H](NC(=O)[C@@H]1CCCN1C(=O)CNC(=O)[C@H](Cc1ccccc1)NC(=O)[C@H](CC(N)=O)NC(=O)[C@H](CC(N)=O)NC(=O)[C@H](CO)NC(=O)[C@H](CO)NC(=O)[C@H](Cc1c[nH]cn1)NC(=O)[C@@H](NC(=O)[C@H](CC(C)C)NC(=O)[C@H](Cc1ccccc1)NC(=O)[C@H](CC(N)=O)NC(=O)[C@H](C)NC(=O)[C@H](CC(C)C)NC(=O)[C@H](CCCNC(=N)N)NC(=O)[C@H](CCC(N)=O)NC(=O)[C@@H](NC(=O)[C@H](C)NC(=O)[C@@H]1CSSC[C@H](NC(=O)[C@@H](N)CCCCN)C(=O)N[C@@H](CC(N)=O)C(=O)N[C@@H]([C@@H](C)O)C(=O)N[C@@H](C)C(=O)N[C@@H]([C@@H](C)O)C(=O)N1)[C@@H](C)O)C(C)C)C(=O)N[C@@H](CC(C)C)C(=O)N1CCC[C@H]1C(=O)N1CCC[C@H]1C(=O)N[C@H](C(=O)N[C@@H](CC(N)=O)C(=O)N[C@H](C(=O)NCC(=O)N[C@@H](CO)C(=O)N[C@@H](CC(N)=O)C(=O)N[C@H](C(=O)N[C@@H](Cc1ccc(O)cc1)C(N)=O)[C@@H](C)O)C(C)C)[C@@H](C)O [Pramlintide, ^25,28,29Pro-h-amylin]
- Body Weight: Change at Week 4, Median ([2]; 30 μg QID subcutaneous): -0.45 kg
- Body Weight: Change at Week 4, Median ([2]; 60 μg QID subcutaneous): -0.45 kg
- Body Weight: Change at Week 4, Median ([2]; 60 μg TID subcutaneous): -1.05 kg

- IC50 [3]: 0.31 nM
Molecule: KDNTATKATQRLANFLVHSSNNFGAILSSTNVGSNTY (lactam 2-7; ends not checked) [^2,7Cyclo-[^2Asp, ^7Lys]-h-Amylin]
